Laboratory results as given in PMC4904262 (ACS Medicinal Chemistry Letters, 2016).

Tests used:
in vitro [1] = details: human, microsomes
phospho-STAT1^SER727 = details: single 5 mg/kg po dose; SW620 xenograft
TGFBR1 = TGFBR1 (Homo sapiens, UniProt P36897); details: 1 µM, ATP at Km
MAPKAP-K2 = MAPKAP-K2 (Homo sapiens, UniProt P49137); details: 1 µM, ATP at Km
PTK5 = PTK5 (Homo sapiens, UniProt P42685); details: 1 µM, ATP at Km
in vivo = details: rat
TAK1 = TAK1 (Homo sapiens, UniProt O43318); details: 1 µM, ATP at Km
ULK3 = ULK3 (Homo sapiens, UniProt Q6PHR2); details: 1 µM, ATP at Km
CHK2 = CHK2 (Homo sapiens, UniProt O96017); details: 1 µM, ATP at Km
aldehyde oxidase = aldehyde oxidase (Homo sapiens, UniProt Q06278)
MTOR = MTOR (Homo sapiens, UniProt P42345); details: 1 µM, ATP at Km
PLK1 = PLK1 (Homo sapiens, UniProt P53350); details: 1 µM, ATP at Km
CKIT = CKIT (Homo sapiens, UniProt P10721); details: 1 µM, ATP at Km
TAO2 = TAO2 (Homo sapiens, UniProt Q9UL54); details: 1 µM, ATP at Km
TRKA = TRKA (Homo sapiens, UniProt P04629); details: 1 µM, ATP at Km
in vitro [2] = details: mouse, plasma
PKA = PKA (Homo sapiens, UniProt P17612); details: 1 µM, ATP at Km
P70S6K = P70S6K (Homo sapiens, UniProt P23443); details: 1 µM, ATP at Km
in vitro [3] = details: rat, microsomes
CKIT(D816V) = CKIT(D816V) (Homo sapiens, UniProt P10721, D816V); details: 1 µM, ATP at Km
CKIT(V654A) = CKIT(V654A) (Homo sapiens, UniProt P10721, V654A); details: 1 µM, ATP at Km
SRC(1-530) = SRC(1-530) (Homo sapiens, UniProt P12931); details: 1 µM, ATP at Km
RET(V804M) = RET(V804M) (Homo sapiens, UniProt P07949, V804M); details: 1 µM, ATP at Km
cMET (D1246N) = cMET (D1246N) (Homo sapiens, UniProt P08581, D1228N); details: 1 µM, ATP at Km
ABL (M351T) = ABL (M351T) (Homo sapiens, UniProt P00519, M351T); details: 1 µM, ATP at Km
CHK2(I157T) = CHK2(I157T) (Homo sapiens, UniProt O96017, I157T); details: 1 µM, ATP at Km
CKIT(D816H) = CKIT(D816H) (Homo sapiens, UniProt P10721, D816H); details: 1 µM, ATP at Km
MKK4 = MKK4 (Mus musculus, UniProt P47809); details: 1 µM, ATP at Km
ABL(T315I) = ABL(T315I) (Homo sapiens, UniProt P00519, T315I); details: 1 µM, ATP at Km
ABL(Y253F) = ABL(Y253F) (Homo sapiens, UniProt P00519, Y253F); details: 1 µM, ATP at Km
FGFR1(V561M) = FGFR1(V561M) (Homo sapiens, UniProt P11362, V561M); details: 1 µM, ATP at Km
[…](V561D) = […](V561D) (Homo sapiens, UniProt P16234, V561D); details: 1 µM, ATP at Km
FGFR2(N549H) = FGFR2(N549H) (Homo sapiens, UniProt P21802, N549H); details: 1 µM, ATP at Km
CKIT(V560G) = CKIT(V560G) (Homo sapiens, UniProt P10721, V560G); details: 1 µM, ATP at Km
cMET (D1246H) = cMET (D1246H) (Homo sapiens, UniProt P08581, D1228H); details: 1 µM, ATP at Km
SRC(T341M) = SRC(T341M) (Homo sapiens, UniProt P12931, T341M); details: 1 µM, ATP at Km
SAPK2A(T106M) = SAPK2A(T106M) (Homo sapiens, UniProt Q16539, T106M); details: 1 µM, ATP at Km
PI3 KINASE (E542K/P85A) = PI3 KINASE (E542K/P85A) (Homo sapiens, UniProt P42336, E542K); details: PI3 KINASE (E542K/P85A) (first listing); 1 µM; ATP at Km
cMET (Y1248C) = cMET (Y1248C) (Homo sapiens, UniProt P08581, Y1230C); details: 1 µM, ATP at Km
LCK = LCK (Homo sapiens, UniProt P06239); details: LCK (second listing, page 11); 1 µM; ATP at Km
CK1(Y) = details: 1 µM, ATP at Km

Sequence of ULK3 (Q6PHR2 whole entry): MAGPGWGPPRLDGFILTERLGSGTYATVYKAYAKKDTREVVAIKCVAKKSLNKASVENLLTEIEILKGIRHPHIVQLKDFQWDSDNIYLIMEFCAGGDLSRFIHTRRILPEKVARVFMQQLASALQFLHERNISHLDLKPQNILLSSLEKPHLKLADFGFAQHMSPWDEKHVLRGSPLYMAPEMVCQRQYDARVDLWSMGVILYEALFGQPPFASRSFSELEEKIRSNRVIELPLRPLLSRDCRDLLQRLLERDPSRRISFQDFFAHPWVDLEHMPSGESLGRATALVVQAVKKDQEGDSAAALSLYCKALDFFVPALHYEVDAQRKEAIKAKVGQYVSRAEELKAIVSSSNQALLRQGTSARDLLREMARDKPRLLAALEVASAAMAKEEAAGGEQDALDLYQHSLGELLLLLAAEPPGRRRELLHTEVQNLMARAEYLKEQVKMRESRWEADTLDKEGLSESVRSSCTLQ
Sequence of TAO2 (Q9UL54 whole entry): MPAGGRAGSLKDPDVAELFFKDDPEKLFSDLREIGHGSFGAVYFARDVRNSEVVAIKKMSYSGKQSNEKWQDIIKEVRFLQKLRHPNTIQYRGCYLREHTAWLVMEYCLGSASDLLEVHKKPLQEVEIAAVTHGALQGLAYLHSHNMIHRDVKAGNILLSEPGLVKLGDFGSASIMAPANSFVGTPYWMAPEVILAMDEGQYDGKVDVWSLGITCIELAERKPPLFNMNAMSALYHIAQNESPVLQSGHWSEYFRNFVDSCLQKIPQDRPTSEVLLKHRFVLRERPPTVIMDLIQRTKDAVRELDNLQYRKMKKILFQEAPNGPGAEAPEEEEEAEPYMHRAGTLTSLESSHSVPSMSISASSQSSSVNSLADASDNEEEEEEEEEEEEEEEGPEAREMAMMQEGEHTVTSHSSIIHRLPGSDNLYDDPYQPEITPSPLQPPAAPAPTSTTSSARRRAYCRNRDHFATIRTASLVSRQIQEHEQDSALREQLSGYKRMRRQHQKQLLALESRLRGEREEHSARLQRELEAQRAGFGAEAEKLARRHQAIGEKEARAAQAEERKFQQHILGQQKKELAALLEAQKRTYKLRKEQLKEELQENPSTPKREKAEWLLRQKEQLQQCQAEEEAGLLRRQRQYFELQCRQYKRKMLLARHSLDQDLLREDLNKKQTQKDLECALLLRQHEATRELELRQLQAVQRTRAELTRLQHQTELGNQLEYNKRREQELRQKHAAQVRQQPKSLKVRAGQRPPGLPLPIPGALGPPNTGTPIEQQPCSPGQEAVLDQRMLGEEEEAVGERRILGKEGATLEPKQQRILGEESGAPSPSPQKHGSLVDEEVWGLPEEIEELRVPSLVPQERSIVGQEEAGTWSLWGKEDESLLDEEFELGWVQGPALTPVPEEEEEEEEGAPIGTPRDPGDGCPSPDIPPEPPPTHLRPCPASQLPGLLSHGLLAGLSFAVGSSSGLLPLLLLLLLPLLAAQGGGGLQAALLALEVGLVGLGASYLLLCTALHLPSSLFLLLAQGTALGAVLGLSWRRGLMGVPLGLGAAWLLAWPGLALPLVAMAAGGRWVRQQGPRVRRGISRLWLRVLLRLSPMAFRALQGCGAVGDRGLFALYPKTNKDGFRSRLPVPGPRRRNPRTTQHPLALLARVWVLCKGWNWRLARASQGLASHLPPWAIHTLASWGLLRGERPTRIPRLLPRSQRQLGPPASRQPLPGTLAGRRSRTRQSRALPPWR
Sequence of TGFBR1 (P36897 34-503): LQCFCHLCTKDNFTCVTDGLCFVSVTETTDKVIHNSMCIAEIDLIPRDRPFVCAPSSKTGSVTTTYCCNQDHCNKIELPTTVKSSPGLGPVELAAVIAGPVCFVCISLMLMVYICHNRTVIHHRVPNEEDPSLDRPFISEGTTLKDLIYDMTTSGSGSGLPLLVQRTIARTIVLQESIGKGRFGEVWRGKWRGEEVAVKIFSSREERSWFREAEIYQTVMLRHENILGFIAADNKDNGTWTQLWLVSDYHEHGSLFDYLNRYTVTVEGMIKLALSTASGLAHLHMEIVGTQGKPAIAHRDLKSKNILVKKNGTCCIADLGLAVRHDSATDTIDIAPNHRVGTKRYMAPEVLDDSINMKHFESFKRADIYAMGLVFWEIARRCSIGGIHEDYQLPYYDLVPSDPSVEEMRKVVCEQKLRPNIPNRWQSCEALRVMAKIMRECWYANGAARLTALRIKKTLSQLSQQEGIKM
Sequence of TRKA (P04629 33-796): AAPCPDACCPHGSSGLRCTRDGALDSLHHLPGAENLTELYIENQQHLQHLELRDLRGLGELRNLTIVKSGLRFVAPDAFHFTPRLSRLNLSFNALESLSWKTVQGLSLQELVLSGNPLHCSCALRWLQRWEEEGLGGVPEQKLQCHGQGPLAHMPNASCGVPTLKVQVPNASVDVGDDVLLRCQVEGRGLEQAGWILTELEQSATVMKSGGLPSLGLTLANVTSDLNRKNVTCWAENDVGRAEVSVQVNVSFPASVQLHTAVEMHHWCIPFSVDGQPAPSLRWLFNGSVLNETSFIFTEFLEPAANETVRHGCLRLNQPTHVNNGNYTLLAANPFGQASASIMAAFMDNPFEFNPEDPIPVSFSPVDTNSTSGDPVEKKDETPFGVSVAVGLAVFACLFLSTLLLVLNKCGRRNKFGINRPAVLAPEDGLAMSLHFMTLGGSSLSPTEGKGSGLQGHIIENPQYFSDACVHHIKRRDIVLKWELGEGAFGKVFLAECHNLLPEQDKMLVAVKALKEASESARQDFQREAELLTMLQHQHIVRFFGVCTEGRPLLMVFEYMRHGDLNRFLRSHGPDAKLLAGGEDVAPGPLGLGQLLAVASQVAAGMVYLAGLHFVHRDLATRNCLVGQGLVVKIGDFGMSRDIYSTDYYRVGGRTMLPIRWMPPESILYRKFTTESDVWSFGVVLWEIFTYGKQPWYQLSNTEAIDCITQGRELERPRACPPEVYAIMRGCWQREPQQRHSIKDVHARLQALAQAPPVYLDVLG
Sequence of PLK1 (P53350 whole entry): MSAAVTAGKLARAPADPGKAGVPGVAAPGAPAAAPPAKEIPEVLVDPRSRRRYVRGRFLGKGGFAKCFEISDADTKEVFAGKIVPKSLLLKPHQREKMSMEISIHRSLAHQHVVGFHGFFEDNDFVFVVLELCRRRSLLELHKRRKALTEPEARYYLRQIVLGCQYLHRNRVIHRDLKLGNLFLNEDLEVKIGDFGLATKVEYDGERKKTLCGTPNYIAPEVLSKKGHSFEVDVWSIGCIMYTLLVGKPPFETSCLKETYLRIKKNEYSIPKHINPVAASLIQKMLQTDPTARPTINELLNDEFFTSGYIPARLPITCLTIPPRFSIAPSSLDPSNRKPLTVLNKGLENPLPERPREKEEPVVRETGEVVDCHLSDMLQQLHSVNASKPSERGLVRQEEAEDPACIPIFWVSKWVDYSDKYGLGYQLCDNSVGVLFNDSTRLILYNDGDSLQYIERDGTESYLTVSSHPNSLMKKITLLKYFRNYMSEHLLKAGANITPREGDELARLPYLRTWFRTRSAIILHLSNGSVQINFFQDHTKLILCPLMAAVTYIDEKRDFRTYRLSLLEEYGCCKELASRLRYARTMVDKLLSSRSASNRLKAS
Sequence of CKIT (P10721 26-976): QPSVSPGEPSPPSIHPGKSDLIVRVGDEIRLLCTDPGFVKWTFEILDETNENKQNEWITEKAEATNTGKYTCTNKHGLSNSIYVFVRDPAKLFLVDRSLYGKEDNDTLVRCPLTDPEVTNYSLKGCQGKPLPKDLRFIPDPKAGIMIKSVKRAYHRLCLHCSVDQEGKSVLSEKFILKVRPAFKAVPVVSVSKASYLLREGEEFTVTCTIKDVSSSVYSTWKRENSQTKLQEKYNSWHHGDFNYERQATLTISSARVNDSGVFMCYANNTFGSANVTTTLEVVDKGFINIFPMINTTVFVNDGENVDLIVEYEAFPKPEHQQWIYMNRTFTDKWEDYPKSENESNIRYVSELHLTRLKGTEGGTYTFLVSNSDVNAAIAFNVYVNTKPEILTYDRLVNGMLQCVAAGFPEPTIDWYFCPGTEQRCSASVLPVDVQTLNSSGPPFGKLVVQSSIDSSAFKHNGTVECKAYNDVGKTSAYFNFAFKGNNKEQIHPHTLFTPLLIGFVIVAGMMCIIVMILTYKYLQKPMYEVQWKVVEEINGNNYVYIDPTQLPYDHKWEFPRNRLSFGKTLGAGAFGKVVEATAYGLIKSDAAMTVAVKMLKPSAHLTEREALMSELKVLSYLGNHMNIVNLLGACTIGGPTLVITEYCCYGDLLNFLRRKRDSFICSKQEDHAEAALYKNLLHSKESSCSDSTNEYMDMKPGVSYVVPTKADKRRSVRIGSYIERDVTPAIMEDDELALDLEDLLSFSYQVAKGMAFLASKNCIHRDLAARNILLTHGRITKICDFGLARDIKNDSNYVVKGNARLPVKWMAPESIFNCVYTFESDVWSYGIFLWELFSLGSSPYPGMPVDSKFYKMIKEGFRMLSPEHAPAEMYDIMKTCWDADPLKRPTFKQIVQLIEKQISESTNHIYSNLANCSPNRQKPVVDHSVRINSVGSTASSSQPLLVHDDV
Sequence of CHK2 (O96017 whole entry): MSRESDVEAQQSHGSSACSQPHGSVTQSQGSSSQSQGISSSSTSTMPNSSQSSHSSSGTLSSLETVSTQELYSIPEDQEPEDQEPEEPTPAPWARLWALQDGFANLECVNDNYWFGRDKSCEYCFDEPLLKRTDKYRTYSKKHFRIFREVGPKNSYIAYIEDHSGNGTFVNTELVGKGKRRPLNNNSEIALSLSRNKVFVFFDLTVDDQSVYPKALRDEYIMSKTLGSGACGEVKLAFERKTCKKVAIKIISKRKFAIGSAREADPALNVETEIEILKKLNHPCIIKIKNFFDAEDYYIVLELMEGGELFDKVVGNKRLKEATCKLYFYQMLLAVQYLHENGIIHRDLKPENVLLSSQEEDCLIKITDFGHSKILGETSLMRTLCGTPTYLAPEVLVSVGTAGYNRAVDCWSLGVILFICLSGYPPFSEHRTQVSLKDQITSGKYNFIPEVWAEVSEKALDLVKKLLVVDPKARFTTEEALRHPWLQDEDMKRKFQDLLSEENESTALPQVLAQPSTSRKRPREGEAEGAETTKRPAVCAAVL

## COC1CN(C(=O)c2ccc3c(N)ncc(-c4ccc(-c5cnn(C)c5)cc4)c3n2)C1 [Compound 51]
In vitro [1]
  microsomal CLint at 1 µM: 61 µL/min/mg
phospho-STAT1^SER727
  inhibition of phospho-STAT1^SER727 in tumor xenograft: time-dependent inhibition of phospho-STAT1^SER727
TGFBR1
  percentage effect: -5%
MAPKAP-K2
  percentage effect: 6%
PTK5
  percentage effect: -8%
In vivo; iv, 0.2 mg/kg
  Vd: 2.13 L/kg
  clearance: 21.5 mL/min/kg
In vivo; po, 0.5 mg/kg
  bioavailability: 57%
TAK1
  percentage effect: -9%
ULK3
  percentage effect: 2%
CHK2
  percentage effect: -1%
Aldehyde oxidase
  AO substrate (Enzyme assay): No
MTOR
  percentage effect: -12%
PLK1
  percentage effect: 1%
CKIT
  percentage effect: 1%
TAO2
  percentage effect: -5%
TRKA
  percentage effect: -23%
In vitro [2]
  fraction unbound: 0.038
PKA
  percentage effect: -1%
P70S6K
  percentage effect: -25%
In vitro [3]
  microsomal CLint at 1 µM: 26 µL/min/mg

## COC1CN(C(=O)c2ccc3c(N)ncc(-c4ccc(-c5cnn(C)c5)cc4)c3c2)C1 [Compound 59]
TGFBR1
  percentage effect: -4%
CKIT(D816V)
  percentage effect: -3%
CKIT(V654A)
  percentage effect: 6%
SRC(1-530)
  percentage effect: -3%
RET(V804M)
  percentage effect: 7%
cMET (D1246N)
  percentage effect: 3%
ABL (M351T)
  percentage effect: 2%
CHK2(I157T)
  percentage effect: -9%
CKIT(D816H)
  percentage effect: -1%
PTK5
  percentage effect: -4%
TAK1
  percentage effect: -13%
MKK4
  percentage effect: 3%
ULK3
  percentage effect: 8%
CHK2
  percentage effect: -10%
MTOR
  percentage effect: -5%
PLK1
  percentage effect: -6%
ABL(T315I)
  percentage effect: 5%
CKIT
  percentage effect: -3%
ABL(Y253F)
  percentage effect: -6%
TAO2
  percentage effect: -7%
FGFR1(V561M)
  percentage effect: -6%
TRKA
  percentage effect: -25%
[…](V561D)
  percentage effect: -9%
FGFR2(N549H)
  percentage effect: -14%
CKIT(V560G)
  percentage effect: -21%
cMET (D1246H)
  percentage effect: 1%
SRC(T341M)
  percentage effect: -18%
SAPK2A(T106M)
  percentage effect: 1%
PI3 KINASE (E542K/P85A)
  percentage effect: -3%
cMET (Y1248C)
  percentage effect: -19%
LCK
  percentage effect: 4%
CK1(Y)
  percentage effect: 4%
